Like-named read-outs stand apart in the source and are kept apart here.
Legend:
VEGF-R2 = target: T1, VEGF-R2 (Homo sapiens, UniProt P35968, DEL940-989/E990V); test: VEGF-R2 Assay (coupled spectrophotometric FLVK-P / ELISA); type: biochemical; settings: for inhibition at 1 µM: read-out: VEGF % Inhib. at 1 μM
T1 construct: VEGF-R2Δ50 contains residues 806–939 and 990–1171; made in house; host or cells: baculovirus/insect cells
Description: VEGF-R2 Construct for Assay
This construct determines the ability of a test compound to inhibit tyrosine kinase activity. A construct (VEGF-R2Δ50) of the cytosolic domain of human vascular endothelial growth factor receptor 2 (VEGF-R2) lacking the 50 central residues of the 68 residues of the kinase insert domain was expressed in a baculovirus/insect cell system. Of the 1356 residues of full-length VEGF-R2, VEGF-R2Δ50 contains residues 806–939 and 990–1171, and also one point mutation (E990V) within the kinase insert domain relative to wild-type VEGF-R2. […] See Parast et al., Biochemistry, 37,16788–16801 (1998).
Coupled Spectrophotometric (FLVK-P) Assay
The production of ADP from ATP that accompanies phosphoryl transfer was coupled to oxidation of NADH using phosphoenolpyruvate (PEP) and a system having pyruvate kinase (PK) and lactic dehydrogenase (LDH). The oxidation of NADH was monitored by following the decrease of absorbance at 340 nm (e340=6.22 cm^1 mM^−1) using a Beckman DU 650 spectrophotometer. Assay conditions for phosphorylated VEGF-R2A50 (indicated as FLVK-P in the tables below) were the following: 1 mM PEP; 250 μM NADH; 50 units of LDH/mL; 20 units of PK/mL; 5 mM DTT; 5.1 mM poly(E4Y1); 1 mM ATP; and 25 mM MgCl2 in 200 mM Hepes, pH 7.5. Assay conditions for unphosphorylated VEGF-R2A50 (indicated as FLVK in the tables) were the following: 1 mM PEP; 250 μM NADH; 50 units of LDH/mL; 20 units of PK/mL; 5 mM DTT; 20 mM poly(E4Y1); 3 mM ATP; and 60 mM MgCl2 and 2 mM MnCl2 in 200 mM Hepes, pH 7.5. Assays were initiated with 5 to 40 nM of enzyme. Ki values were determined by measuring enzyme activity in the presence of varying concentrations of test compounds. The data were analyzed using Enzyme Kinetic and Kaleidagraph software.
Formation of phosphogastrin was monitored using biotinylated gastrin peptide (1–17) as substrate. Biotinylated phosphogastrin was immobilized using streptavidin coated 96-well microtiter plates followed by detection using anti-phosphotyrosine-antibody conjugated to horseradish peroxidase. The activity of horseradish peroxidase was monitored using 2,2′-azino-di-[3-ethylbenzathiazoline sulfonate(6)] diammonium salt (ABTS). Typical assay solutions contained: 2 μM biotinylated gastrin peptide; 5 mM DTT; 20 μM ATP; 26 mM MgCl2; and 2 mM MnCl2 in 200 mM Hepes, pH 7.5. The assay was initiated with 0.8 nM of phosphorylated VEGF-R2Δ50. Horseradish peroxidase activity was assayed using ABTS, 10 mM. The horseradish peroxidase reaction was quenched by addition of acid (H2SO4), followed by absorbance reading at 405 nm. Ki values were determined by measuring enzyme activity in the presence of varying concentrations of test compounds. The data were analyzed using Enzyme Kinetic and Kaleidagraph software.

HCT 116 cell line = test: Inhibition of Cell Growth (MTT tetrazolium salt assay); type: cell-based; settings: Homo sapiens
Procedure, shortened: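 HCT 116 cells in McCoy's 5A were dosed 4 h after plating, in 0.5% (v/v) DMSO, then held 4–6 days at 37 °C, 5% CO2. MTT at 0.2 mg/mL final for 4 h; DMSO-solubilized formazan read at 540 nm. IC50 taken from the linear part of a semi-log plot versus DMSO-only controls.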

[1] = HCT-116, read-out: HCT 116 IC50 (uM)
[2] = HCT-116, read-out: HCT 116 IC90 (uM)
[3] = HCT 116, MTT, 50% inhibition of growth, read-out: HCT 116 IC50
[4] = HCT 116, MTT, IC90, read-out: HCT 116 IC90

T1 sequence (P35968 with tags, fused parts or gaps DEL940-989/E990V limits assumed): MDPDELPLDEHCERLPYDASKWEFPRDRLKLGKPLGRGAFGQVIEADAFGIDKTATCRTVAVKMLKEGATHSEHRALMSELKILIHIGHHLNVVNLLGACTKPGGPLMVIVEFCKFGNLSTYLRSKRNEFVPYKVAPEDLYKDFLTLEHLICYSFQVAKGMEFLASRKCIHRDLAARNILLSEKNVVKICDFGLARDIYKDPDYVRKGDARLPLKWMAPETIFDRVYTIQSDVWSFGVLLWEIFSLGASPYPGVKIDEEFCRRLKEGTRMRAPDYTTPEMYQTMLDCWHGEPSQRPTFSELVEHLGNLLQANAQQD

Compound | inhibition at 1 µM (VEGF-R2) | IC50 (HCT 116 cell line; [1]) | IC90 (HCT 116 cell line; [2]) | IC50 (HCT 116 cell line; [3]) | IC90 (HCT 116 cell line; [4]) | Ki (VEGF-R2)
CCNCc1cccc2[nH]c(-c3n[nH]c4ccc(-c5cncc6ccccc56)cc34)nc12 [Example 37, Ethyl-[2-(5-isoquinolin-4-yl-1H-indazol-3-yl)-1H-benzoimidazol-4-ylmethyl]-amine] | 17% | 0.041 µM | 0.12 µM |  |  | 
Cc1c(-c2cccc(CO)c2)cncc1-c1ccc2[nH]nc(-c3nc4ccccc4[nH]3)c2c1 [Example 69, (3-{5-[3-(1H-Benzoimidazol-2-yl)-1H-indazol-5-yl]-4-methyl-pyridin-3-yl}-phenyl)-methanol] | 38% |  |  | 0.69 µM | 2.1 µM | 
Cc1c(O)cccc1-c1ccc2[nH]nc(/C=C/c3ccccc3)c2c1 [15′, 2-Methyl-3-[3-((E)-styryl)-1H-indazol-5-yl]-phenol] |  |  |  | 1.2 µM | 2.5 µM | 
O=C(Nc1cccc2c(-c3ccc4[nH]nc(-c5nc6ccccc6[nH]5)c4c3)cncc12)c1cccnc1 [Example 55, N-{4-[3-(1H-Benzoimidazol-2-yl)-1H-indazol-5-yl]-isoquinolin-8-yl}-nicotinamide] | 32% |  |  | 1.5 µM | 5 µM | 
Cc1c(-c2cccnc2)cncc1-c1ccc2[nH]nc(-c3nc4ccccc4[nH]3)c2c1 [Example 58] | 17% |  |  | 0.46 µM | 1.3 µM | 
CCc1c(-c2ccncc2)cncc1-c1ccc2[nH]nc(-c3nc4ccccc4[nH]3)c2c1 [Example 61, 5-[3-(1H-Benzoimidazol-2yl)-1H-indazol-5-yl]-4ethyl-[3,4′]bipyridinyl] | 18% |  |  | 0.22 µM | 0.5 µM | 
C(=C\c1n[nH]c2ccc(-c3cncc4ccccc34)cc12)/c1ccccc1 [Example 16] | 36% |  |  | 3 µM | 5 µM | 
Cc1c(O)cccc1-c1ccc2[nH]nc(-c3nc4ccccc4[nH]3)c2c1 [10′, 3-[3-(1H-Benzoimidazol-2-yl)-1H-indazol-5-yl]-2-methyl-phenol] |  |  |  | 1.5 µM | 3.8 µM | 
CS(=O)(=O)Nc1ccc2nc(-c3n[nH]c4ccc(-c5cncc6ccccc56)cc34)[nH]c2c1 [Example 70, N-[2-(5-Isoquinolin-4-yl-1H-indazol-3-yl)-3H-benzoimidazol-5-yl]-methanesulfonamide] | 45% |  |  | 0.18 µM | 0.44 µM | 
CN(C)Cc1cccc2[nH]c(-c3n[nH]c4ccc(-c5cncc6ccccc56)cc34)nc12 [Example 31, [2-(5-Isoquinolin-4-yl-1H-indazol-3-yl)-1H-benzoimidazol-4-ylmethyl]-dimethyl-amine] | 17% |  |  |  |  | 2900 nM
c1ccc2[nH]c(-c3n[nH]c4ccc(-c5cccc6[nH]ccc56)cc34)nc2c1 [Example 48, 3-(1H-Benzoimidazol-2-yl)-5-(1H-indol-4-yl)-1H-indazole] |  |  |  | 3.9 µM | 5 µM | 
Cc1c(CN(C)C)cncc1-c1ccc2[nH]nc(-c3nc4ccccc4[nH]3)c2c1 [Example 73, {5-[3-(1H-Benzoimidazol-2-yl)-1H-indazol-5-yl]-4-methyl-pyridin-3-ylmethyl}-dimethyl-amine] | 15% |  |  | 0.2 µM | 0.6 µM | 
c1ccc2[nH]c(-c3n[nH]c4ccc(-c5cncc6c5CCCN6)cc34)nc2c1 [Example 54] | 46% |  |  | 0.079 µM | 0.23 µM | 
CC(C)NCc1cccc2[nH]c(-c3n[nH]c4ccc(-c5cncc6ccccc56)cc34)nc12 [Example 38, Isopropyl-[2-(5-isoquinolin-4-yl-1H-indazol-3-yl)-1H-benzoimidazol-4-ylmethyl]-amine] | 9% | 0.029 µM | 0.06 µM |  |  | 
CCN(CC)Cc1cccc2[nH]c(-c3n[nH]c4ccc(-c5cncc6ccccc56)cc34)nc12 [Example 36, Diethyl-[2-(5-isoquinolin-4-yl-1H-indazol-3-yl)-1H-benzoimidazol-4-ylmethyl]-amine] | 15% |  |  | 0.024 µM | 0.06 µM | 
Fc1ccccc1-c1ccc2[nH]nc(-c3nc4ccccc4[nH]3)c2c1 [Example 6, 3-(1H-Benzoimidazol-2-yl)-5-(2-fluorophenyl)-1H-Indazole] | 64% |  |  | 6 µM | 21 µM | 
Clc1ccncc1-c1ccc2[nH]nc(-c3nc4ccccc4[nH]3)c2c1 [Example 52, 3-(1H-Benzoimidazol-2-yl)-5-(4-chloro-pyridin-3-yl)-1H-indazole] | 38% |  |  | 0.5 µM | 2.2 µM | 
CCNCc1cncc(-c2ccc3[nH]nc(-c4nc5ccccc5[nH]4)c3c2)c1C [Example 74, {5-[3-(1H-Benzoimidazol-2-yl)-1H-indazol-5-yl]-4-methyl-pyridin-3-ylmethyl}-ethyl-amine] | 14% |  |  |  |  | 
OCc1cccc2[nH]c(-c3n[nH]c4ccc(-c5cncc6ccccc56)cc34)nc12 [Example 29, [2-(5-Isoquinolin-4-yl-1H-indazol-3-yl)-1H-benzoimidazol-4-yl]-methanol] | 6% |  |  | 0.18 µM | 0.8 µM | 
Cc1c(CO)cncc1-c1ccc2[nH]nc(-c3nc4ccccc4[nH]3)c2c1 [Example 72, {5-[3-(1H-Benzoimidazol-2-yl)-1H-indazol-5-yl]-4-methyl-pyridin-3-yl}-methanol] | 24% |  |  | 0.15 µM | 0.53 µM | 
Cc1c(-c2ccncc2)cncc1-c1ccc2[nH]nc(-c3nc4ccccc4[nH]3)c2c1 [Example 53, 5-[3-(1H-Benzoimidazol-2-yl)-1H-indazol-5-yl]-4-methyl-[3,4′]bipyridinyl] | 32% |  |  | 0.2 µM | 0.75 µM | 
CCc1cncc(-c2ccc3[nH]nc(/C=C/c4ccccc4)c3c2)c1Cl [Example 46, 5-(4-Chloro-5-ethyl-pyridin-3-yl)-3-(E)-styryl-1H-indazole] | 51% |  |  |  |  | 
Cc1c(/C=C/CO)cncc1-c1ccc2[nH]nc(-c3nc4ccccc4[nH]3)c2c1 [Example 59, (E)-3-{5-[3-(1H-Benzoimidazol-2-yl)-1H-indazol-5-yl]-4-methyl-pyridin-3-yl}-prop-2-en-1-ol] | 31% |  |  | 0.2 µM | 0.48 µM | 
Cc1c(-c2ccncc2)cncc1-c1ccc2[nH]nc(-c3nc4ccc(NS(C)(=O)=O)cc4[nH]3)c2c1 [Example 71, N-{2-[5-(4-methyl-[3,4′]bipyridinyl-5-yl)-1H-indazol-3-yl)-3H-benzoimidazol-5-yl]-methanesulfonamide] | 42% |  |  | 0.7 µM | 2 µM | 
Cc1c(CCCO)cncc1-c1ccc2[nH]nc(-c3nc4ccccc4[nH]3)c2c1 [Example 60, (E)-3-{5-[3-(1H-Benzoimidazol-2-yl)-1H-indazol-5-yl]-4-methyl-pyridin-3-yl}-propan-1-ol] | 26% |  |  | 0.2 µM | 0.5 µM | 

Source: patent publication US7232912B2, “Indazole compounds, pharmaceutical compositions, and methods for mediating or inhibiting cell proliferation” (Agouron Pharmaceuticals, Inc., priority 2000, dated 2007)
